Where a SMILES comes first, the peptide text is derived from it. [ ]: non-standard residue; d: D form. The star is where a group is joined. Fumaryl(OMe) = COC(=O)/C=C/C(=O)*; Dap = NC[C@H](N)C(=O)O
Columns and labels:
Format in all cases: cell-based, Candida albicans
[1] = system: C. albicans SC 5314 cells; experiment: Morphological changes, Calcofluor White staining for chitin; conditions: SC 5314 cells in RPMI-1640, 6 h, 30°C, F11 100 μg mL^-1
Protocol: Candida albicans cells from the overnight cultures in YPD were harvested, washed with sterile saline and suspended in the RPMI-1640 medium, to the final cell density of 10^5 cfu mL^-1. The compounds tested were added at appropriate concentrations and cultures were incubated for 6 h at 30°C, with shaking. At time intervals, samples of 0.1 mL were collected and cells were stained for chitin. The culture samples were combined with 0.1 mL aliquots of the Calcofluor White solution [0.3 mg mL^-1 in 25 mM phosphate-buffered saline (PBS), pH 7.0] and incubated for 5 min at 25°C. The cells were then harvested, washed four times with PBS, re-suspended in 0.1 mL of the fresh PBS and transferred to a microscopic slide. The stained cells were examined with the Olympus BX 60 F5 fluorescence microscope and photographs were taken using the Studio Lite software (Pixera Corporation, United States).
Since the anticandidal activity of P10 was moderate but independent on medium content and that of F11 was higher but strongly influenced by medium composition, it seemed obvious that the molecular bases of growth inhibitory activity of P10 and F11 were different and that a higher activity of F11 resulted from the presence of FMDP in its structure. To confirm whether the anticandidal activity of F11 was a consequence of GlcN6P synthase inhibition by FMDP, a morphology of SC 5314 cells treated with F11 was compared to that of the untreated cells. The cells were stained with Calcofluor White, the fluorescent brightener that binds specifically to chitin in the fungal cell wall. […] Since it is well known that the primary septum is built of chitin, this finding confirms that the action of F11 results in inhibition of chitin biosynthesis.

[2] = system: C. albicans SC 5314; experiment: Disc diffusion method; conditions: YNB-AS agar, 10 μg of peptide on a disc (10 μL of 1 mg mL^-1), 48 h, 30°C
Protocol: Candida albicans cells, apparently resistant to FMDP-peptides, were isolated from the individual colonies formed on the surface of YNB-SG agar medium containing FMDP-peptide, 10 μg mL^-1 or within the growth inhibitory zones around the paper discs saturated with 10 μL of the FMDP-peptide solution, 1 mg mL^-1. In both versions, the agar surface was inoculated with 10^5 cells from the overnight culture in YPD medium, washed three times with sterile water, suspended in 0.2 mL of sterile water and the cell suspension was spread on the whole surface with a sterile glass rod. Plates were incubated for 48 h at 30°C and isolated colonies were picked with a platinum loop.
Growth inhibitory activity of FMDP-oligopeptides against C. albicans SC 5314 was also determined by the disc diffusion method. […] Cells grown in these colonies were collected, re-grown in YNB-AS and tested for sensitivity to FMDP-oligopeptides.
FIGURE 3 Disc diffusion activity determination of FMDP-oligopeptides. YNB-AS agar medium, 10 μg of each peptide applied on a disc. (A) F2; (B) F3; (C) F6; (D) F7; (E) F11.

[3] = system: C. albicans opt1–opt5Δ; experiment: Initial peptide uptake rate; conditions: 50 mM potassium phosphate buffer (pH 5.0 or 6.5) + 1% glucose, 30°C, 100 μM peptide, TNBS A420, slope 0- to 10-min
Procedure, shortened: (§1)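 Exponentially grown yeast in 50 mM potassium phosphate (pH 5.0 or 6.5) with 1% glucose at 30°C received oligopeptide at a final 100 μM. Residual peptide in filtrates was measured every 5 min by trinitrobenzenesulfonate assay (A420). Initial rates come from 0–10 min slopes, per mg dry cells.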

[4] = system: C. albicans ptr2Δ ptr22Δ; experiment: Initial peptide uptake rate; conditions: 50 mM potassium phosphate buffer (pH 5.0 or 6.5) + 1% glucose, 30°C, 100 μM peptide, TNBS A420, slope 0- to 10-min
Procedure, shortened: as §1

[5] = system: C. albicans opt1Δ; experiment: Initial peptide uptake rate; conditions: 50 mM potassium phosphate buffer (pH 5.0 or 6.5) + 1% glucose, 30°C, 100 μM peptide, TNBS A420, slope 0- to 10-min
Procedure, shortened: as §1

[6] = system: C. albicans opt4Δ; experiment: Initial peptide uptake rate; conditions: 50 mM potassium phosphate buffer (pH 5.0 or 6.5) + 1% glucose, 30°C, 100 μM peptide, TNBS A420, slope 0- to 10-min
Procedure, shortened: as §1

[7] = system: C. albicans SC5314; experiment: Initial peptide uptake rate; conditions: SC 5314; cells grown in YNB-SG; 50 mM potassium phosphate buffer (pH 5.0 or 6.5) + 1% glucose, 30°C, 100 μM peptide, residual peptide by TNBS A420, slope 0- to 10-min
Procedure, shortened: as §1

[8] = system: C. albicans opt1–opt5Δ ptr2Δ ptr22Δ; experiment: Initial peptide uptake rate; conditions: 50 mM potassium phosphate buffer (pH 5.0 or 6.5) + 1% glucose, 30°C, 100 μM peptide, TNBS A420, slope 0- to 10-min
Procedure, shortened: as §1

[9] = system: C. albicans isolates NF1-3 and LNF1-3; experiment: Initial peptide uptake rate by isolates resistant to F2/F3; conditions: all six isolates NF1-3, LNF1-3; Figure 4
Protocol: Yeast cells grown exponentially in the YNB-SG medium were harvested by centrifugation (3000 ×g, 5 min), washed with 50 mM potassium phosphate buffer (pH 5.0 or 6.5), and suspended in the same buffer containing 1% glucose, to a final cell density corresponding to A660 ≅ 1.0. The cell suspension was incubated at 30°C. After 10 min, an oligopeptide solution was added, to give a final concentration of 100 μM. At that moment and at 5 min intervals thereafter, 2 mL samples of the cell suspension were withdrawn, immediately filtered through the Whatman GF/A filters and the filtrates were used to determine the residual peptide concentration. Then, the 1 mL portions of the filtrates were taken and combined with 1.25 mL aliquots of a solution containing 4% Na2B4O7 × 10 H2O and 0.8 mg mL^-1 of 2,4,6-trinitrobenzenesulfonate. The reaction was carried out at 37°C for 30 min. The A420 values were measured and the peptide concentration was read from the appropriate standard curve. Data were plotted as nanomoles of an oligopeptide, taken up by 1 mg (dry weight) of cells versus time. The initial uptake velocities were determined from the slopes of the linear part of the curves, in the 0- to 10-min region.
It is therefore clear that the diminished sensitivity of all six isolates to F2 and F3 was due to the reduced uptake, most likely by permease(s) of the PTR system.

In the case of COC(=O)/C=C/C(=O)NC[C@H](NC(=O)[C@H](CCSC)NC(=O)[C@@H](NC(=O)[C@@H]1CCCN1C(=O)[C@H](CC(C)C)NC(=O)[C@@H](N)CCCCN)C(C)C)C(=O)O [Peptide F6, Lys-Leu-Pro-Val-Met-FMDP] (H-KLPVM[Dap](Fumaryl(OMe))-OH; N-terminus and C-terminus assumed), the “Morphological changes (primary septum / chitin)” value [1] was “analogous to those observed for F11-treated cells”, the “Appearance of growth inhibitory zone” value [2] was “clear” and the “Uptake rate ± SD” value [3] was 0.22 ± 0.04 nmol min^-1 (mg dry weight)^-1. The “Uptake rate ± SD” value [4] was 3.00 ± 0.25 nmol min^-1 (mg dry weight)^-1, the “Uptake rate ± SD” value [5] was 2.08 ± 0.15 nmol min^-1 (mg dry weight)^-1 and the “Uptake rate ± SD” value [6] was 2.99 ± 0.11 nmol min^-1 (mg dry weight)^-1. For the same compound, the “Uptake rate ± SD” value [7] was 3.12 ± 0.20 nmol min^-1 (mg dry weight)^-1, the “Uptake rate ± SD” value [8] was 0.18 ± 0.03 nmol min^-1 (mg dry weight)^-1 and the “Initial uptake rate relative to wild type SC5314 cells” value [9] was “nearly the same or even somewhat higher”.

In the case of COC(=O)/C=C/C(=O)NC[C@H](N)C(=O)N[C@@H](CCCNC(=N)N)C(=O)N[C@@H](CCCCN)C(=O)N[C@@H](CCCCN)C(=O)N[C@@H](Cc1c[nH]c2ccccc12)C(=O)N[C@@H](Cc1ccccc1)C(=O)N[C@@H](Cc1c[nH]c2ccccc12)C(=O)O [Peptide F7, FMDP-Arg-Lys-Lys-Trp-Phe-Trp] (H-[Dap](Fumaryl(OMe))RKKWFW-OH; N-terminus and C-terminus assumed), the “Morphological changes (primary septum / chitin)” value [1] was “analogous to those observed for F11-treated cells”, the “Appearance of growth inhibitory zone” value [2] was “clear” and the “Uptake rate ± SD” value [3] was 0.32 ± 0.07 nmol min^-1 (mg dry weight)^-1. The “Uptake rate ± SD” value [4] was 2.22 ± 0.16 nmol min^-1 (mg dry weight)^-1, the “Uptake rate ± SD” value [5] was 1.70 ± 0.12 nmol min^-1 (mg dry weight)^-1 and the “Uptake rate ± SD” value [6] was 1.85 ± 0.12 nmol min^-1 (mg dry weight)^-1. For the same compound, the “Uptake rate ± SD” value [7] was 2.40 ± 0.16 nmol min^-1 (mg dry weight)^-1 and the “Uptake rate ± SD” value [8] was 0.23 ± 0.02 nmol min^-1 (mg dry weight)^-1.

With COC(=O)/C=C/C(=O)NC[C@H](N)C(=O)N[C@@H](CCCCN)C(=O)N[C@@H](CCCCN)C(=O)N[C@H](C(=O)N[C@H](C(=O)N[C@@H](Cc1ccccc1)C(=O)N[C@@H](Cc1c[nH]c2ccccc12)C(=O)N[C@H](C(=O)N[C@@H](CCCCN)C(=O)N[C@@H](Cc1ccccc1)C(=O)N[C@@H](CCCCN)C(=O)O)C(C)C)C(C)C)C(C)C [Peptide F11, FMDP-Lys-Lys-Val-Val-Phe-Trp-Val-Lys-Phe-Lys] (H-[Dap](Fumaryl(OMe))KKVVFWVKFK-OH; N-terminus assumed) the “Morphological changes (primary septum / chitin)” value [1] was “defective in formation of a primary septum”, the “Appearance of growth inhibitory zone” value [2] was “clear” and the “Uptake rate ± SD” value [4] was 2.28 ± 0.15 nmol min^-1 (mg dry weight)^-1. For the same compound, the “Uptake rate ± SD” value [5] was 1.64 ± 0.11 nmol min^-1 (mg dry weight)^-1, the “Uptake rate ± SD” value [6] was 1.77 ± 0.18 nmol min^-1 (mg dry weight)^-1 and the “Uptake rate ± SD” value [7] was 2.25 ± 0.15 nmol min^-1 (mg dry weight)^-1. The “Uptake rate ± SD” value [8] was 0.18 ± 0.02 nmol min^-1 (mg dry weight)^-1.
